Measured values from US20250115571A1, “OXOPIPERAZINE DERIVATIVES” (Inthera Bioscience AG, priority 2017, published 2025).

How the values were obtained:
[1] = tested on: CaSki cells; assay: Colony Formation Assay (CFA), 14 days; format: cell-based; conditions: Homo sapiens, Ca-Ski, 336 h, 10 μM, reference compound standard treatment, 14 days
Text: Cell culture: CaSki cells were obtained from CLS GmbH, Eppelheim, Germany (cat. 300145) and subcultured in ready-to-use RPMI1640 Media (CLS GmbH cat. 820700) after addition of “Antibiotic Antimycotic Solution” (Sigma-Aldrich, St Louis, USA, cat. A5955) at 1:100 dilution. CaSki cells were expanded and aliquots kept frozen in liquid nitrogen according to manufacturer's instructions. Once thawed, aliquots were passaged every second or third day at a seed density of 20′000 cells/cm^2; and used for a maximum of twenty passages.
Preparation of the cells for CFA: Cell culture flasks were rinsed twice with Ca++/Mg++-free Phosphate-Buffered Saline (DPBS, CLS GmbH cat. 860015) and incubated with Accutase (CLS GmbH cat. 830100) for 15 min at 37° C. Cells were resuspended in a four-fold volume of ready-to use RPMI, centrifuged at 300 g for 10 minutes, the supernatant discarded and the cells resuspended in ready-to-use RPMI1640 by pipetting up and down ten times with a serological pipette. Cell density was determined with a Via-1 Cassette (Chemometec, Allerod, Denmark) on a Nucleocounter NC 3000 (Chemometec). The required amount of cells was first diluted 1:10 in ready-to-use RPMI; cells pipetted five times up-down with a serological pipette; and the 1:10 solution added to the final volume needed for the whole assay setup. Cells were mixed again by pipetting up and down twenty times with a serological pipette. The final cell density was 70 cells/ml.
Seeding: Cells were seeded column-wise in 6-well plates, while triplicates were treated row-wise. Three ml cell suspension solution (210 cells) were added per well.
Treatment: Compound stock solutions were prepared at a concentration of 30 mM in 50% DMSO/50% water; and diluted in the same solution so that the volume added to the wells was of 5 μl and the final DMSO well concentration 0.08%. Untreated cells (negative controls) were incubated in a) medium only; and b) 0.08% DMSO. […] Tests showing less than 75% or more than 95% inhibition were repeated. The plates were swirled gently after addition of the compounds and the cells incubated for 14 days at 37° C. Culture incubation solutions were replaced after one week.
Staining: Colonies were washed twice with ice-cold DPBS and fixed on ice with 1 ml ice-cold 10% methanol solution for 30 min. The methanol solution was removed and colonies incubated with 0.1% Crystal Violet/DBPS for 20 min at room temperature. The wells were rinsed with water at room temperature, let dry and colonies were counted. Compounds e.g., compounds of Table 2 and 3 were classified as follows: […]

[2] = tested on: HPV-positive head-and-neck squamous cell carcinoma model #HN11303; assay: Patient-derived xenograft mouse model for head-and-neck squamous cell carcinoma (HN11303); format: in vivo; conditions: subcutaneous HPV-positive HNSCC model, female NMRI nu/nu mice
Method: Female NMRI nu/nu mice were injected with cells derived from a human head-and-neck cancer (model #HN11303, an HPV-positive head-and-neck squamous cell carcinoma, EPO-GmbH, Berlin, Germany). The cells were inoculated subcutaneously into the left flank of 40 mice. Thirteen days later tumors reached a mean volume of approximately 107 mm^3, and mice were randomly assigned to five treatment groups of each eight mice (TABLE 23). Body weights were measured twice weekly. Tumor burden was assessed by caliper measurement twice weekly. Dosing breaks were applied when tolerability issues arose (body weight loss>10). The study was terminated five weeks post first dosing. The experiment was performed in the EPO animal testing facility (Experimental Pharmacology and Oncology GmbH, 13125 Berlin-Buch, Germany).

[3] = tested on: CaSki; assay: 9-day colony survival assay (CFA); format: cell-based; conditions: Homo sapiens, Ca-Ski, 216 h, CaSki (cervix), read-out: GI50 (50% growth inhibition)
Text: Cell culture. CaSki cells (cervical cancer) were obtained from CLS GmbH, Eppelheim, Germany (cat #300145) and subcultured in ready-to-use RPMI1640 Media (CLS #820700) after addition of “Antibiotic Antimycotic Solution” (Sigma-Aldrich, St Louis, USA) at 1:100 dilution. The cells were expanded, and aliquots kept frozen in liquid nitrogen according to manufacturer's instructions; tested for mycoplasma contamination and genotyped (Microsynth AG, Balgach, Switzerland). Once thawed, aliquots were passaged every second or third day at a seed density of 20′000 cells/cm^2; and used for a maximum of twenty passages. For passaging, cell culture flasks were rinsed twice with Ca++/Mg++-free Phosphate-Buffered Saline (DPBS, CLS #860015) and incubated with Accutase (CLS #830100) for 15 min at 37° C. Cells were resuspended in a four-fold volume of ready-to-use RPMI, centrifuged at 300 g for ten minutes, the supernatant discarded and the cells resuspended in ready-to-use RPMI1640 by pipetting up and down five times with a serological pipette. Cell density was determined with a Via-1 Cassette (Chemometec, Allerod, Denmark) on a Nucleocounter NC 3000 (Chemometec). Where not stated, consumables and chemicals were purchased from well-known suppliers.
Preparation of the cells for CFA. Cell culture flasks were rinsed twice with DPBS and incubated with Accutase for 15 min at 37° C. Cells were resuspended in a four-fold volume of ready-to use RPMI, centrifuged at 300 g for ten minutes, the supernatant discarded and the cells resuspended in ready-to-use RPMI1640 by pipetting up and down ten times with a serological pipette. Cell density was determined with a Via-1 Cassette on a Nucleocounter NC 3000. The required amount of cells was first diluted 1:10 in ready-to-use RPMI; cells pipetted five times up-down with a serological pipette; and the 1:10 solution added to the final volume needed for the whole assay setup. Cells were mixed again by pipetting up and down twenty times with a serological pipette. The cell density used for the experiment was of 140 cells/ml.
Seeding. Cells were seeded row-wise in 12-well plates, while triplicates were treated column-wise (i.e. all the first rows were seeded first, then the second rows, and finally the third rows). One and a half ml cell suspension solution (a total of 210 cells) were added per well.
Treatment. Compound stock solutions were prepared at a concentration of 30 mM in 50% DMSO/50% water; and diluted in the same solution so that the volume added to the wells was of 2.5 μl and the final DMSO well concentration of 0.08%. Untreated cells (negative controls) were incubated in a) medium only; and b) 0.08% DMSO. […] The plates were swirled gently after addition of the compounds and the cells incubated for nine days at 37° C. Culture incubation solutions were replaced after five days.
Staining. Colonies were washed twice with ice-cold DPBS and fixed on ice with 1 ml ice-cold 10% methanol solution for 30 min. The methanol solution was removed and colonies incubated with 0.1% Crystal Violet/DBPS for 20 min at room temperature. The wells were rinsed consecutively with 1.5, 1, and 0.5 ml water at room temperature and let dry.
Destaining and data evaluation. […] Absorbance was measured at 600 nm with a SpectraMax M2e reader (Molecular Devices, Sunnyvale, CA, USA). Percentage of colony formation was calculated from the average of the well triplicates compared to the untreated DMSO controls after subtraction of blank values. […]

[4] = tested on: HCT116; assay: 9-day colony survival assay (CFA); format: cell-based; conditions: Homo sapiens, HCT-116, 216 h, HCT116 (colon), read-out: GI50 (50% growth inhibition)
[5] = tested on: A549; assay: 9-day colony survival assay (CFA); format: cell-based; conditions: Homo sapiens, 216 h, A549 (lung), read-out: GI50 (50% growth inhibition)
[6] = tested on: PC3; assay: 9-day colony survival assay (CFA); format: cell-based; conditions: Homo sapiens, PC-3, 216 h, PC3 (prostate), read-out: GI50 (50% growth inhibition)
[7] = tested on: MKN45 human gastric adenocarcinoma cells; assay: Cell-derived xenograft mouse model for gastric cancer (MKN45 CDX); format: in vivo; conditions: 6 mg/kg, QD, p.o.
Method: Female BALB/c nude mice (8-9 weeks of age) were injected with MKN45 human gastric adenocarcinoma cells. The cells were inoculated subcutaneously into the left flank of 48 mice. When tumors reached a mean volume of approximately 103 mm^3, mice were randomly assigned to eight treatment groups of each six mice (TABLE 16). Body weights were measured three times weekly prior to the initiation of dosing and daily thereafter. Tumor burden was assessed by caliper measurement twice weekly. Dosing breaks were applied when tolerability issues arose (body weight loss>10%). The study was terminated four weeks post first dosing. The experiment was performed in the Crown Bioscience Ltd. (Beijing) testing facility (Ground Floor, Light Muller Building, Changping Sector of Zhongguancun Scientific Park, No. 21 Huoju Road, Changping District, Beijing, CHN).

[8] = tested on: hormone-refractory DU-145 human prostate cancer cells; assay: Cell-derived xenograft mouse model for prostate cancer (DU-145 CDX); format: in vivo; conditions: 3 mg/kg, p.o. QD × 4 weeks
Method: Male BALB/c nude mice (7-9 weeks of age) were injected with hormone-refractory DU-145 human prostate cancer cells. The cells were inoculated subcutaneously into the left flank of 48 mice. When tumors reached a mean volume of approximately 105 mm^3, mice were randomly assigned to eight treatment groups of each six mice (TABLE 12). Body weights were measured three times weekly prior to the initiation of dosing and daily thereafter. Tumor burden was assessed by caliper measurement three times weekly. Dosing breaks were applied when tolerability issues arose (body weight loss>10%). The study was terminated 4 weeks post first dosing. The experiment was performed in the Crown Bioscience Ltd. (Beijing) testing facility (Ground Floor, Light Muller Building, Changping Sector of Zhongguancun Scientific Park, No. 21 Huoju Road, Changping District, Beijing, CHIN).

| SMILES | inhibition at 10 µM [1] | mean TV ([2]; day 13) | mean TV ([2]; day 15) | mean TV ([2]; day 18) | mean TV ([2]; day 21) | mean TV ([2]; day 25) | mean TV ([2]; day 29) | mean TV ([2]; day 33) | mean TV ([2]; day 36) | GI50 [3] | GI50 [4] | GI50 [5] | GI50 [6] | Tumor Size day 29 ([7]; MKN45 CDX, female BALB/c nude mice, Mean ± SEM) | T/C ([7]; day 29, tumor-to-control ratio (volume/volume)) | Tumor Size day 35 (Mean ± SEM) [8] | T/C (tumor-to-control ratio, volume/volume) ([8]; day 35) |
| --- | --- | --- | --- | --- | --- | --- | --- | --- | --- | --- | --- | --- | --- | --- | --- | --- | --- |
| CC(C)C[C@@H]1NCCN([C@@H](CC(C)C)C(=O)N2CCC(Cc3ncc[nH]3)CC2)C1=O [Compound 57, (S)-1-[(S)-1-({4-[(1H-Imidazol-2-yl)methyl]-1-piperidyl}carbonyl)-3-methylbutyl]-3-isobutyl-2-piperazinone] | 80 to 90% | 0.1073 cm^3 | 0.1106 cm^3 | 0.1166 cm^3 | 0.1081 cm^3 | 0.1233 cm^3 | 0.1421 cm^3 | 0.2009 cm^3 | 0.1776 cm^3 |  |  |  |  |  |  |  |  |
| CC(C)C[C@@H]1NCCN([C@@H](CC(C)C)C(=O)N2CCC3(C[C@@H]2C)OCC(CN2CCC(C)CC2)CO3)C1=O (stereo partly drawn) [Compound 253, (3S)-1-[(2S)-4-methyl-1-oxo-1-[(3s,6s,8S)-8-methyl-3-[(4-methylpiperidin-1-yl)methyl]-1,5-dioxa-9-azaspiro[5.5]undec-an-9-yl]pentan-2-yl]-3-(2-methylpropyl)piper-azin-2-one (^≠), isomer Z] |  |  |  |  |  |  |  |  |  | 4.5 nM | 2 nM | 7 nM | 4 nM | 506.5 ± 71.0 mm^3 | 42.6% | 480 ± 49 mm^3 | 69.3% |
| CC(C)C[C@H]1C(=O)N([C@@H](CC(C)C)C(=O)N2CCC3(C[C@@H]2C)OCC(CN2CCCC2)CO3)CCN1C (stereo partly drawn) [Compound 287, (3S)-4-methyl-1-[(2S)-4-methyl-1-oxo-1-[(3s,6s,8S)-8-methyl-3-(pyrrolidin-1-ylmethyl)-1,5-dioxa-9-azaspiro[5.5]undec-an-9-yl]pentan-2-yl]-3-(2-methylpropyl)piper-azin-2-one (^≠), isomer Z] |  |  |  |  |  |  |  |  |  | 13 nM | 1.5 nM | 20 nM | 7 nM |  |  |  |  |
